SMILES strings stand for the structures.

Drawing on patent publication US20240018136A1, “CDK Inhibitors And Their Use As Pharmaceuticals” (Prelude Therapeutics, Incorporated, priority 2022, published 2024), this text covers IC50 for 15 molecules.

One assay concerns the target CDK2/Cyclin E2 (Homo sapiens, UniProt P24941). The experiment in a line: CDK2/CyclinE2 enzymatic activity assay (TR-FRET). In kind it is biochemical. Conditions: ATP 1 mM final, read-out: CDK2_E1 IC50. As for the experimental part:
CDK2/CyclinE2 Enzymatic Activity Assay
(§1) The inhibitory activity of compounds was evaluated in vitro using TR-FRET assay with white 384-well low volume microplate (Greiner Bio-One). CDK2/Cyclin E2 catalyzed phosphorylation of peptide in the presence and absence of compounds was measured and used in IC50 determination. Recombinant protein complex CDK2/Cyclin E2, expressed from insect cell, was purchased from ProQinase. Testing compounds were dissolved in DMSO at 1 mM and tested in 9-dose IC50 mode. The reaction mixture was prepared by mixing CDK2/CyclinE2 (1 nM final), ULight-4E-BP1 (50 nM final, Perkinelmer, TRF0128-D), and ATP (1 mM final) in assay buffer (20 mM of HEPES pH 7.4, 1 mM of EGTA, 0.05% BSA, 0.005% Tween 20, and 1 mM TCEP). The compound of interest in DMSO was added to each well in 3-fold serial dilution by dispenser (TECAN D300E) to make a 9.9 μL of reaction mixture. After 20 minutes preincubation at room temperature, 0.1 μL MgCl2 (10 mM final) was added to initiate the reaction. Following a 45 minute incubation at 37° C., the reaction was stopped by addition of 2 μL of quenching buffer consisting of Lance detection buffer (Perkinelmer CR97-100C), LANCE Ultra Europium-anti-P-4E-BP1 (Perkinelmer, TRF0216-D), EDTA, and incubate at room temperature for an additional 60 minutes in the dark. The reaction signal was measured by Envision multimode plate reader (PerkinElmer, 2102-0010). IC50 values were determined by fitting the data to the standard 4 parameters with Hill Slope using GraphPad Prism software.
In general terms: In TR-FRET formats the signal depends on donor and acceptor labels being close together.

A further assay concerns OVCAR3 p-RB. The experiment in a line: pRB ICW assay in OVCAR3 cells. To be noted: Homo sapiens, OVCAR-3, incubated with compound for 2 hours. Format: cell-based. As to the method:
pRB ICW Assay in OVCAR3 Cells
OVCAR3 cells were maintained in RPMI (Corning, Catalog #: 10-040-CV) supplemented with 10% v/v FBS (Gibco, Catalog #: 26140-079), 1% v/v Penicillin Streptomycin (Gibco, Catalog #15140-122.) OVCAR3 cells grown at log phase were trypsinized, counted, and resuspended in fresh medium to reach a final density of 6.7e4 cells/mL and 75 μL of culture were dispensed into a 384-well plate (Falcon, cat #353962) using Multidrop Combi dispenser (Thermo Scientific). The next day, compounds were dispensed as a 9-point, ½ log serial dilution using a Tecan digital dispenser (D300e), and cells were incubated with compound for 2 hours in a humidified incubator at 37° C. A reference compound at a final concentration of 10 μM was used as a control for maximum inhibition. Each compound was tested in duplicates in each experiment. At the end of the incubation, 25 μL of 16% paraformaldehyde (Electron Microscopy, cat #15710) was slowly added to each well and the plate was incubated at room temperature (RT) for 30 minutes to fix cells. Cells were then permeabilized by incubating with 50 μL/well of wash buffer (lx PBS with 0.1% Triton X-100) 5×5 minutes, followed by 1 hour blocking with 30 μL/well of Odyssey blocking buffer (Li-COR, cat #927-40000), all at RT. Anti-phosphor RB antibody (Cell signaling 8516S) was diluted 1:1000 in Odyssey blocking buffer and 20 μL was added to all wells and incubated overnight in 4° C. with gently rocking. The next day, cells were washed 5×5 min with 50 μL/well of wash buffer, followed with 1 hour incubation with secondary antibody and DRAQ5 diluted in Odyssey blocking buffer (1:500 dilution for secondary antibody and 1:2000 dilution for DRAQ5), 5×5 min washes, and one last wash with water. Plates were dried in 37° C. oven for 5 min and scanned using Li-COR Odyssey CLx imaging system to acquire intensities at 700 and 800 nm channels.

A further assay concerns the target T1, CDK4/Cyclin D1 (Homo sapiens, UniProt P11802).
T1 construct: purchased ProQinase; host or cells: insect cell
The experiment in a line: CDK4/CyclinD1 enzymatic activity assay (TR-FRET). In kind it is biochemical. To be noted: ATP 2 mM final, read-out: CDK4_D1 IC50. As for the experimental part:
CDK4/CyclinD1 Enzymatic Activity Assay
as §1, with “Bio-One). CDK4/Cyclin D1” for “Bio-One). CDK2/Cyclin E2”, “in IC5” for “in IC50”, “complex CDK4/Cyclin D1,” for “complex CDK2/Cyclin E2,”, “mixing CDK4/CyclinD1” for “mixing CDK2/CyclinE2”, “ULight-4E-BP1 (100” for “ULight-4E-BP1 (50”, “ATP (2” for “ATP (1”

T1 sequence (P11802 whole entry): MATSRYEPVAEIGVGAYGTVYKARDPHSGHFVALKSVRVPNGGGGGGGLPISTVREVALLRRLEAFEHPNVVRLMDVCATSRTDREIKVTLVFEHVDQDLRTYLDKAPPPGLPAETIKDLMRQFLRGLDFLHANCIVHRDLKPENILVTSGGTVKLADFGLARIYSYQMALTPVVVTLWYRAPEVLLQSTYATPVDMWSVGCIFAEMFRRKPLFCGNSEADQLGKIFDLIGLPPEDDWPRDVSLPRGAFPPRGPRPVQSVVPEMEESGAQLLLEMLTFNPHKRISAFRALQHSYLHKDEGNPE
T1 sequence (P24385 whole entry partner): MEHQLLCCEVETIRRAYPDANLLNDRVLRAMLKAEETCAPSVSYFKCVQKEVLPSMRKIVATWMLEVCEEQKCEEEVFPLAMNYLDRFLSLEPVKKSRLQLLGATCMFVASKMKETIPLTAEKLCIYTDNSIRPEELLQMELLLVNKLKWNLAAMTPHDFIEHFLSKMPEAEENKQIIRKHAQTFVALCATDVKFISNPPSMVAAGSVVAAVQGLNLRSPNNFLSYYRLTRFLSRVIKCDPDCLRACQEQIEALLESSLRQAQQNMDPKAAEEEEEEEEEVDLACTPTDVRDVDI

As usually defined, the IC50 is the point on the concentration scale where inhibition reaches its midpoint. For the molecule `Cc1cc(C(C)O)ccc1-c1ncc(-c2nc(NC3CCN(S(C)(=O)=O)CC3)ncc2C(F)(F)F)s1` (stereo not drawn) [Example 7, 1-[3-Methyl-4-[5-[2-[(1-methylsulfonylpiperidin-4-yl)amino]-5-(trifluoromethyl)pyrimidin-4-yl]-1,3-thiazol-2-yl]phenyl]ethanol], the results for the IC50 at CDK2/Cyclin E2, with OVCAR3 p-RB and on CDK4/Cyclin D1 were ≤ 100 nM, 100 to 1000 nM and ≤ 100 nM, respectively.

Turning to `Cc1cc(C(C)(C)O)ccc1-c1ncc(-c2nc(NC3CCN(S(C)(=O)=O)CC3)ncc2C(F)(F)F)s1` [Example 8, 2-[3-Methyl-4-[5-[2-[(1-methylsulfonylpiperidin-4-yl)amino]-5-(trifluoromethyl)pyrimidin-4-yl]-1,3-thiazol-2-yl]phenyl]propan-2-ol], the IC50 at CDK2/Cyclin E2 is ≤ 100 nM; with OVCAR3 p-RB it was > 1000 nM; on CDK4/Cyclin D1 it was 100 to 1000 nM.

On to `CS(=O)(=O)N1CCC(Nc2ncc(C(F)(F)F)c(-c3cnc(-c4ccc(CO)cc4Cl)s3)n2)CC1` [Example 9, [3-Chloro-4-[5-[2-[(1-methylsulfonylpiperidin-4-yl)amino]-5-(trifluoromethyl)pyrimidin-4-yl]-1,3-thiazol-2-yl]phenyl]methanol], for which the IC50 on CDK2/Cyclin E2 was ≤ 100 nM; with OVCAR3 p-RB it was 100 to 1000 nM; on CDK4/Cyclin D1, ≤ 100 nM.

In the case of `Cc1nc(CO)ccc1-c1ncc(-c2nc(NC3CCN(S(C)(=O)=O)CC3)ncc2C(F)(F)F)s1` [Example 10, [6-Methyl-5-[5-[2-[(1-methylsulfonylpiperidin-4-yl)amino]-5-(trifluoromethyl)pyrimidin-4-yl]-1,3-thiazol-2-yl]pyridin-2-yl]methanol], the IC50 is ≤ 100 nM on CDK2/Cyclin E2, > 1000 nM with OVCAR3 p-RB and ≤ 100 nM on CDK4/Cyclin D1.

As to `Cc1ccc(-c2ncc(-c3nc(NC4CCN(S(C)(=O)=O)CC4)ncc3C(F)(F)F)s2)c(C)c1` [Example 11, 4-[2-(2,4-dimethylphenyl)-1,3-thiazol-5-yl]-N-(1-methylsulfonyl-piperidin-4-yl)-5-(trifluoromethyl)pyrimidin-2-amine], the figures for the half-inhibitory concentration (IC50) on CDK2/Cyclin E2, in the assay with OVCAR3 p-RB and on CDK4/Cyclin D1 were ≤ 100 nM, > 1000 nM and 100 to 1000 nM, respectively.

On to `Cc1cc(CO)ccc1-c1ncc(-c2nc(NC3CCN(S(C)(=O)=O)CC3)ncc2C(F)(F)F)s1` [Example 12, [3-methyl-4-[5-[2-[(1-methylsulfonylpiperidin-4-yl)amino]-5-(trifluoromethyl)pyrimidin-4-yl]-1,3-thiazol-2-yl]phenyl]methanol], for which the values for the concentration for half-maximal inhibition (IC50) at CDK2/Cyclin E2, with OVCAR3 p-RB and on CDK4/Cyclin D1 were ≤ 100 nM, 100 to 1000 nM and ≤ 100 nM, respectively.

As for `CNCc1ccc(-c2ncc(-c3nc(NC4CCN(S(C)(=O)=O)CC4)ncc3C(F)(F)F)s2)c(C)c1` [Example 13, 4-[2-[2-Methyl-4-(methylaminomethyl)phenyl]-1,3-thiazol-5-yl]-N-(1-methylsulfonylpiperidin-4-yl)-5-(trifluoromethyl)pyrimidin-2-amine], the IC50 is ≤ 100 nM on CDK2/Cyclin E2, 100 to 1000 nM in the assay on OVCAR3 p-RB and ≤ 100 nM on CDK4/Cyclin D1.

For `COC(=O)N(C)Cc1ccc(-c2ncc(-c3nc(NC4CCN(S(C)(=O)=O)CC4)ncc3C(F)(F)F)s2)c(C)c1` [Example 14, methyl N-methyl-N-[[3-methyl-4-[5-[2-[(1-methylsulfonylpiperidin-4-yl)amino]-5-(trifluoromethyl)pyrimidin-4-yl]-1,3-thiazol-2-yl]phenyl]methyl]carbamate], the results for the IC50 at CDK2/Cyclin E2, in the assay on OVCAR3 p-RB and at CDK4/Cyclin D1 were ≤ 100 nM, > 1000 nM and 100 to 1000 nM, respectively.

Regarding `Cc1cc(CO)ccc1-c1nc(C)c(-c2nc(NC3CCN(S(C)(=O)=O)CC3)ncc2F)s1` [Example 15, [4-[5-[5-fluoro-2-[(1-methylsulfonylpiperidin-4-yl)amino]pyrimidin-4-yl]-4-methyl-1,3-thiazol-2-yl]-3-methylphenyl]methanol], the results for the IC50 at CDK2/Cyclin E2, with OVCAR3 p-RB and at CDK4/Cyclin D1 were ≤ 100 nM, > 1000 nM and 100 to 1000 nM, respectively.

As for `Cc1nn(CCO)cc1-c1ncc(-c2nc(NC3CCN(S(C)(=O)=O)CC3)ncc2C(F)(F)F)s1` [Example 17, 2-[3-methyl-4-[5-[2-[(1-methylsulfonylpiperidin-4-yl)amino]-5-(trifluoromethyl)pyrimidin-4-yl]-1,3-thiazol-2-yl]pyrazol-1-yl]ethanol], the IC50 on CDK2/Cyclin E2, in the assay with OVCAR3 p-RB and on CDK4/Cyclin D1 was 100 to 1000 nM in each case.

Regarding `Cc1ncc(-c2nc(NC3CCN(S(C)(=O)=O)CC3)ncc2C(F)(F)F)s1` [Example 19, N-(1-methylsulfonylpiperidin-4-yl)-4-(2-methyl-1,3-thiazol-5-yl)-5-(trifluoromethyl)pyrimidin-2-amine], the IC50 at CDK2/Cyclin E2 is ≤ 100 nM; with OVCAR3 p-RB, 100 to 1000 nM; on CDK4/Cyclin D1, ≤ 100 nM.

As for `CS(=O)(=O)N1CCC(Nc2ncc(C(F)(F)F)c(-c3cnc(N)s3)n2)CC1` [Example 20, 5-(2-((1-(methylsulfonyl)piperidin-4-yl)amino)-5-(trifluoromethyl)pyrimidin-4-yl)thiazol-2-amine], the IC50 is ≤ 100 nM at CDK2/Cyclin E2, 100 to 1000 nM with OVCAR3 p-RB and ≤ 100 nM at CDK4/Cyclin D1.

On to `CC(=O)Nc1ncc(-c2nc(NC3CCN(S(C)(=O)=O)CC3)ncc2C(F)(F)F)s1` [Example 21, N-(5-(2-((1-(methylsulfonyl)piperidin-4-yl)amino)-5-(trifluoromethyl)pyrimidin-4-yl)thiazol-2-yl)acetamide], for which the half-inhibitory concentration (IC50) at CDK2/Cyclin E2 is ≤ 100 nM; in the assay with OVCAR3 p-RB, 100 to 1000 nM; at CDK4/Cyclin D1, 100 to 1000 nM.

Consider `CC(C)N(C)c1ncc(-c2nc(NC3CCN(S(C)(=O)=O)CC3)ncc2C(F)(F)F)s1` [Example 22, N-isopropyl-N-methyl-5-(2-((1-(methylsulfonyl)piperidin-4-yl)amino)-5-(trifluoromethyl)pyrimidin-4-yl)thiazol-2-amine], for which the IC50 on CDK2/Cyclin E2 is ≤ 100 nM; in the assay with OVCAR3 p-RB, 100 to 1000 nM; on CDK4/Cyclin D1, ≤ 100 nM.

`CS(=O)(=O)N1CCC(Nc2ncc(C(F)(F)F)c(-c3cnc(CO)s3)n2)CC1` [Example 24, [5-[2-[(1-methylsulfonylpiperidin-4-yl)amino]-5-(trifluoromethyl)pyrimidin-4-yl]-1,3-thiazol-2-yl]methanol]: the IC50 on CDK2/Cyclin E2 was ≤ 100 nM; with OVCAR3 p-RB it was > 1000 nM; on CDK4/Cyclin D1, 100 to 1000 nM.
